# How the values were obtained:
# [1] = biological target: T1, Fibroblast growth factor 2 (Homo sapiens, UniProt P09038); experiment: Binding affinity for Fibroblast growth factor 2
# [2] = biological target: T2, Fibroblast growth factor 1 (Homo sapiens, UniProt P05230); experiment: Dissociation constant for Fibroblast growth factor 1
# [3] = biological target: T2, Fibroblast growth factor 1; experiment: Binding affinity for Fibroblast growth factor 1
# [4] = biological target: T1, Fibroblast growth factor 2; experiment: Dissociation constant for Fibroblast growth factor 2
# [5] = biological target: T1, Fibroblast growth factor 2; experiment: Dissociation constant for Fibroblast growth factor 2 (None Observed)
# [6] = biological target: T1, Fibroblast growth factor 2; experiment: Dissociation constant for Fibroblast growth factor 2 (None observed)
# T2 sequence (P05230 whole entry): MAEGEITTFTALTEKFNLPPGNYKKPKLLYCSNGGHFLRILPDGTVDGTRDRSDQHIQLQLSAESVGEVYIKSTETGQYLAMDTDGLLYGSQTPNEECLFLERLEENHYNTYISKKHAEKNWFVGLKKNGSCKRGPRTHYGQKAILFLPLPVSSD
# T1 sequence (P09038 143-288 limits assumed): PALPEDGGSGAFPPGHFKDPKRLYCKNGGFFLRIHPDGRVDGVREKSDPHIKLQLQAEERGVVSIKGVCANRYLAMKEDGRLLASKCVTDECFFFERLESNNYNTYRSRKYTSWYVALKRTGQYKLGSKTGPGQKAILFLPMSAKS
Delta G [1] [kcal/mol],Kd [2] [µM],Delta G [3] [kcal/mol],Kd [4] [µM],Kd [5],Kd [6],Compound
-3.13,3410,-3.36,5100,–,–,O=S(=O)(O)OC[C@H]1OCC[C@@H](OCc2ccccc2)C1OS(=O)(=O)O (some centres not stated)
-2.9,3250,-3.39,7500,–,–,O=S(=O)(O)OC[C@H]1OCC[C@@H](OCCCOc2ccccc2)C1OS(=O)(=O)O (some centres not stated)
-6.65,1.2,-8.07,13.3,–,–,O=S(=O)(O)OC[C@@H]1O[C@@H](O[C@H]2[C@H](OS(=O)(=O)O)[C@H](OS(=O)(=O)O)C(OS(=O)(=O)O)O[C@H]2COS(=O)(=O)O)[C@@H](OS(=O)(=O)O)[C@H](OS(=O)(=O)O)[C@H]1OS(=O)(=O)O (some centres not stated)
–,609,-4.38,–,None Observed,–,O=C(O)c1cc(/N=N/c2ccc(S(=O)(=O)Nc3ccccn3)cc2)ccc1O [SULFASALAZINE]
-4.91,338,-4.73,249,–,–,COC1OC(C)C(OCc2ccccc2)C(OS(=O)(=O)O)C1OS(=O)(=O)O (configuration not stated)
-2.39,5940,-3.04,17400,–,–,CO[C@@H]1CCO[C@H](COS(=O)(=O)O)C1OS(=O)(=O)O (some centres not stated)
-6.53,1.15,-8.1,16.2,–,–,CO[C@@H]1O[C@@H](COS(=O)(=O)O)[C@@H](O[C@@H]2O[C@@H](COS(=O)(=O)O)[C@H](OS(=O)(=O)O)[C@H](OS(=O)(=O)O)[C@@H]2OS(=O)(=O)O)[C@H](OS(=O)(=O)O)[C@@H]1OS(=O)(=O)O
-4.72,127,-5.31,343,–,–,CO[C@H]1O[C@H](COS(=O)(=O)O)[C@@H](OS(=O)(=O)O)[C@H](OS(=O)(=O)O)[C@@H]1OS(=O)(=O)O
-4.89,340,-4.73,258,–,–,[N-]=[N+]=NCC1OC(OS(=O)(=O)O)C(OS(=O)(=O)O)C(OS(=O)(=O)O)C1OS(=O)(=O)O (configuration not stated)
-2.86,307,-4.79,8020,–,–,COC1C(OCc2ccccc2)C2COC(O2)C1OS(=O)(=O)O (configuration not stated)
-5.19,37.5,-6.04,155,–,–,O=S(=O)(O)OC[C@@H]1O[C@H](OS(=O)(=O)O)[C@H](OS(=O)(=O)O)[C@@H](OS(=O)(=O)O)[C@@H]1OS(=O)(=O)O
-7.17,0.74,-8.36,5.5,–,–,O=S(=O)(O)C[C@@H]1[C@@H](O[C@]2(COS(=O)(=O)O)O[C@H](COS(=O)(=O)O)[C@@H](OS(=O)(=O)O)[C@@H]2OS(=O)(=O)O)O[C@@H](CS(=O)(=O)O)[C@@H](OS(=O)(=O)O)[C@H]1OS(=O)(=O)O
-6.24,0.13,-9.39,26.7,–,–,O=S(=O)(O)C[C@@H]1[C@H](OS(=O)(=O)O)O[C@H](OS(=O)(=O)O)[C@H](O[C@H]2O[C@@H](COS(=O)(=O)O)[C@@H](OS(=O)(=O)O)[C@H](OS(=O)(=O)O)[C@H]2OS(=O)(=O)O)[C@H]1OS(=O)(=O)O
-7.09,0.54,-8.54,6.3,–,–,O=S(=O)(O)OC[C@@H]1O[C@H](O[C@H]2[C@H](OS(=O)(=O)O)[C@H](OS(=O)(=O)O)C(OS(=O)(=O)O)O[C@H]2COS(=O)(=O)O)[C@@H](OS(=O)(=O)O)[C@H](OS(=O)(=O)O)[C@H]1OS(=O)(=O)O (some centres not stated)
-4.98,474,-4.53,223,–,–,O=S(=O)(O)c1ccc2c(S(=O)(=O)O)cc(S(=O)(=O)O)cc2c1 [NAPHTHALENE TRISULFONATE]
-8.08,0.0078,-11.1,1.18,–,–,O=S(=O)(O)OC[C@@H]1O[C@H](OS(=O)(=O)O)[C@H](OC2O[C@@H](COS(=O)(=O)O)[C@@H](S(=O)(=O)O)[C@H](O[C@H]3O[C@@H](COS(=O)(=O)O)[C@@H](OS(=O)(=O)O)[C@H](OS(=O)(=O)O)[C@H]3OS(=O)(=O)O)[C@H]2OS(=O)(=O)O)[C@@H](OS(=O)(=O)O)[C@@H]1OS(=O)(=O)O (some centres not stated)
-4.44,300,-4.8,550,–,–,CO[C@H]1O[C@@H](COCC(=O)N(CCOS(=O)(=O)O)CC(=O)NC2CCCCC2)[C@@H](OS(=O)(=O)O)[C@H](OS(=O)(=O)O)[C@H]1OS(=O)(=O)O
–,1340,-3.92,–,–,None observed,C=CCOC1C(C)OC(OC)C(OS(=O)(=O)O)C1OS(=O)(=O)O (configuration not stated)
–,921,-4.14,–,–,None observed,CO[C@@H]1O[C@@H](COS(=O)(=O)O)[C@@H](OS(=O)(=O)O)[C@H](OC(=O)c2ccccc2)[C@@H]1OC(=O)c1ccccc1
-4.67,120,-5.35,375,–,–,O=C(CN(Cc1ccccc1)C(=O)C1OC(OS(=O)(=O)O)C(OS(=O)(=O)O)C(OS(=O)(=O)O)C1OS(=O)(=O)O)NC1CCCCC1 (configuration not stated)

# Source: ChEMBL document CHEMBL1149118, “Validation of molecular docking calculations involving FGF-1 and FGF-2” (J Med Chem, 2004)
